The values below come from ChEMBL document CHEMBL6078704, “Redesigning Berberines and Sanguinarines to Target Soluble Epoxide Hydrolase for Enhanced Anti-Inflammatory Efficacy” (J Med Chem, 2024).

For data set [1], the system named is Staphylococcus aureus. In words: Antimicrobial activity against Staphylococcus aureus ATCC 29213 by microbroth dilution method. In kind it is functional. (In broth dilution the organism is exposed to a series of concentrations in liquid medium.)
In data set [2] the test system is Staphylococcus aureus. In words: Antimicrobial activity against methicillin-resistant Staphylococcus aureus 19B120 by microbroth dilution method. In kind it is functional.
Data set [3] addresses T1, Bifunctional epoxide hydrolase 2 (Mus musculus, UniProt P34914).
T1 sequence (P34914 whole entry): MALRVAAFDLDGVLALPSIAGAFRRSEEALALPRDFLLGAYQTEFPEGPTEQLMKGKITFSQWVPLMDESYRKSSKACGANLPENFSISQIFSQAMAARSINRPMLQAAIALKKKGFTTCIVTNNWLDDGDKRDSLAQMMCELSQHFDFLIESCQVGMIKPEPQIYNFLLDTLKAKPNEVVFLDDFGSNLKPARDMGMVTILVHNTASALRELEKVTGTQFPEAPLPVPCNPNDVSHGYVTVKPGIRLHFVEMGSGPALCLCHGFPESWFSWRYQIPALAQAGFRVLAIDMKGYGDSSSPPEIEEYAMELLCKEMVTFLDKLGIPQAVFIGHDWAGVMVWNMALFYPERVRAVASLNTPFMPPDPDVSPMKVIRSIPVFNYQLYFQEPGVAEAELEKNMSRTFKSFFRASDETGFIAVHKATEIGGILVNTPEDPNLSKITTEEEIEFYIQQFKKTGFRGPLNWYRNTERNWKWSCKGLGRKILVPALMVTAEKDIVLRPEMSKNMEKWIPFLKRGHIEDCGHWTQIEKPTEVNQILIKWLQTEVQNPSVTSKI
In words: Inhibition of male C57BL/6J mouse brain sEH assessed as quantity of 14,15-DHET level measured after 15 mins incubation by HPLC-MS analysis.

In data set [4] the test system is Mus musculus. In words: Anti-inflammatory activity in carrageen-induced paw edema BALB/c mouse model assessed as inhibition of soft tissue edema and inflammation measured immediately at 20 mg/kg, po measured at 1 to 4 hrs. The settings on record: time 1-4 hrs. It is filed as functional.
The test system of data set [5] is Mus musculus. In words: Anti-inflammatory activity in carrageen-induced paw edema BALB/c mouse model assessed as inhibition of soft tissue edema and inflammation measured immediately at 0.5 mg/kg, ip measured up to 6 hrs. It is filed as functional.
The subject of the next data set is HepG2. In words: Cytotoxicity against human HepG2 cells assessed as cell viability at 0.5 to 5 uM measured after 48 hrs by CCK-8 assay. It is filed as toxicity, cell-based. As to conditions: hepg2, 48 h, dose 0.5-5 µM. (In general: Tetrazolium assays rely on reduction of a dye to a coloured formazan, in cell work by metabolically active cells.)
The next data set has as its system HEK-293T. In words: Cytotoxicity against human 293T cells assessed as cell viability at 0.5 to 5 uM measured after 48 hrs by CCK-8 assay. As to conditions: dose 0.5-5 µM; call rule not given here. It is filed as toxicity, cell-based.
The subject of data set [6] is Mus musculus. In words: Antiinflammatory activity against cerulein-induced acute pancreatitis in CD1 mouse assessed as increase in pancreatic 14,15-EET/DHET ratio at 20 mg/kg, ip pretreated with cerulein followed by compound injection on 30 and 150 mins and measured 6 hrs post cerulein treatment relative to model group. It is filed as functional. The settings on record: time 30-360 min.

The subject of data set [7] is Mus musculus. In words: Antiinflammatory activity against cerulein-induced acute pancreatitis in CD1 mouse assessed as increase in pancreatic 8,9-EET/DHET ratio at 20 mg/kg, ip pretreated with cerulein followed by compound injection on 30 and 150 mins and measured 6 hrs post cerulein treatment relative to model group. It is filed as functional. As to conditions: time 30-360 min.

Data set [8] relates to Mus musculus. In words: Antiinflammatory activity against cerulein-induced acute pancreatitis in CD1 mouse assessed as increase in plasma 14,15-EET/DHET ratio at 20 mg/kg, ip pretreated with cerulein followed by compound injection on 30 and 150 mins and measured 6 hrs post cerulein treatment relative to model group. As to conditions: time 30-360 min. It is filed as functional.

The test system of data set [9] is Mus musculus. In words: Antiinflammatory activity against cerulein-induced acute pancreatitis in CD1 mouse assessed as increase in plasma 8,9-EET/DHET ratio at 20 mg/kg, ip pretreated with cerulein followed by compound injection on 30 and 150 mins and measured 6 hrs post cerulein treatment relative to model group. It is filed as functional. As to conditions: time 30-360 min.

As to `COc1cc2cc3[n+](cc2cc1OC)CCc1cc(NC(=O)NCc2ccc(OC(F)(F)F)cc2)ccc1-3.[Cl-]`, the MIC (usually the lowest concentration that inhibits growth of the organism) with Staphylococcus aureus [1] stood at 8 µg/mL; against Staphylococcus aureus [2], 4 µg/mL. In addition, the IC50 (as a rule, the concentration that gives 50% inhibition) in [3] is 39.1 nM.
Consider `CCC(=O)N1CCC(NC(=O)Nc2ccc3c(c2)CN2CCc4cc(OC)c(OC)cc4C2C3)CC1` (stereo unspecified), for which the IC50 in [3] amounted to 143 nM.
On to `CCC(=O)N1CCC(CNC(=O)Nc2ccc3c(c2)CN2CCc4cc(OC)c(OC)cc4C2C3)CC1` (stereo unspecified), for which the IC50 in [3] came to 18.8 nM.
`COc1ccc2cc3[n+](cc2c1OC)CCc1cc2c(cc1-3)OCO2` [BERBERINE]: the MIC in the data set on Staphylococcus aureus [1] was 64 µg/mL; in the data set with Staphylococcus aureus [2], 32 µg/mL.
`CCC(=O)N1CCC(NC(=O)Nc2ccc(OC(F)(F)F)cc2)CC1`: the inhibition in vivo (commonly the change of the read-out against control, counted positive when it falls) at 20 mg/kg with Mus musculus [4] was found to be 25%. In addition, the inhibition in vivo at 0.5 mg/kg with Mus musculus [5] turned out to be 15%.
With `CC(C)CNC(=O)Nc1ccc2c(c1)CN1CCc3cc4c(cc3C1C2)OCO4` (stereo unspecified), the IC50 in data set [3] was found to be 9.98 nM.
`COc1cc2c(cc1OC)C1Cc3ccc(NC(=O)NCc4cccc(OC(F)(F)F)c4)cc3CN1CC2` (stereo unspecified): in the data set with Mus musculus [5], the inhibition result was “Active; Reduced Inhibition In Later Stages Of Experiment”. Also, the Activity result with HepG2 and with HEK-293T was “Non-toxic” in each case. Besides, the IC50 in data set [3] amounted to 2.55 nM.
`COc1cc2c(cc1OC)C1Cc3ccc(NC(=O)NCc4ccc(OC(F)(F)F)cc4)cc3CN1CC2` (stereo unspecified): in the data set with Mus musculus [5], the inhibition in vivo at 0.5 mg/kg is 35%. For the same compound, the Activity result in the data set with HepG2 and in the data set on HEK-293T was “Non-toxic” each time. Moreover, the 50% inhibitory concentration (IC50) in data set [3] came out at 0.86 nM.
With `CN1Cc2cc(NC(=O)NCc3ccc(OC(F)(F)F)cc3)ccc2-c2ccc3ccccc3c21`, the IC50 in [3] was 12.1 nM.
Regarding `O=C(NCc1ccc(OC(F)F)cc1)Nc1ccc2c(c1)CN1CCc3cc4c(cc3C1C2)OCO4` (stereo unspecified), the Activity entry with HepG2 and in the data set on HEK-293T was “Non-toxic” each time. In addition, the IC50 in data set [3] stood at 0.67 nM.
`COc1cc2c(cc1OC)C1Cc3ccc(NC(=O)NCc4ccc(S(N)(=O)=O)cc4)cc3CN1CC2` (stereo unspecified): the IC50 in [3] stood at 17.3 nM.
Consider `O=C(NCc1cccc(OC(F)(F)F)c1)Nc1ccc2c(c1)CN1CCc3cc4c(cc3C1C2)OCO4` (stereo unspecified), for which the IC50 in data set [3] is 2.34 nM.
Same read-out and setting: for `COc1cc2c(cc1OC)C1Cc3ccc(NC(=O)NCC4COC4)cc3CN1CC2` (stereo unspecified) the value was 2650 nM.
For `COc1cc2c(cc1OC)CN1CCc3cc(NC(=O)NCc4ccc(OC(F)F)cc4)ccc3C1C2` (stereo unspecified), the Activity result in the data set on HepG2 and in the data set on HEK-293T was “Non-toxic” throughout. Further, in data set [3], the IC50 came out at 0.73 nM.
Regarding `CC(C)CNC(=O)Nc1ccc2c(c1)CN(C)c1c-2ccc2ccccc12`, the IC50 in data set [3] was determined as 20.5 nM.
The same measure, in the same setting: for `COc1cc2c(cc1OC)C1Cc3ccc(NC(=O)NCC4CCCCC4)cc3CN1CC2` (stereo unspecified) the value was 4.98 nM.
`CN1Cc2cc(NC(=O)NCC3CCOCC3)ccc2-c2ccc3ccccc3c21`: the Activity result in the data set with HepG2 and in the data set on HEK-293T was “Non-toxic” each time. For the same compound, in data set [3], the half-inhibitory concentration (IC50) came to 5.56 nM.
Consider `CCC(=O)N1CCC(CNC(=O)Nc2ccc3c(c2)CN2CCc4cc5c(cc4C2C3)OCO5)CC1` (stereo unspecified), for which the Activity entry in the data set on HepG2 and in the data set on HEK-293T was “Non-toxic” each time. The IC50 in data set [3] is 15.6 nM.
As to `COc1cc2c(cc1OC)C1Cc3ccc(NC(=O)NCc4ccc(S(C)(=O)=O)cc4)cc3CN1CC2` (stereo unspecified), in the data set on Mus musculus [5], the inhibition in vivo at 0.5 mg/kg was 25%. In addition, the Activity entry in the data set on HepG2 and with HEK-293T was “Non-toxic” in each case. Further, the IC50 in data set [3] came to 6.13 nM.
Turning to `COc1cc2c(cc1OC)CN1CCc3cc(NC(=O)NCc4ccc(OC(F)(F)F)cc4)ccc3[C@H]1C2`, the “fold change (FC)” value in the data set with Mus musculus [6] is on record as 18.5; with Mus musculus [7], 6.7; with Mus musculus [8], 3.3; in the data set with Mus musculus [9] it was 2. For the same compound, the MIC in the data set with Staphylococcus aureus [1] and in the data set on Staphylococcus aureus [2] was more than 64 µg/mL each time. The Activity entry in the data set with HepG2 and in the data set with HEK-293T was “Non-toxic” in each case.
For the compound `COc1cc2c(cc1OC)CN1CCc3cc(NC(=O)NCC4CCOCC4)ccc3C1C2` (stereo unspecified), in [3], the IC50 was found to be 21.2 nM.
In the case of `COc1cc2c(cc1OC)-c1cc3ccc(NC(=O)NCc4ccc(OC(F)(F)F)cc4)cc3c(=O)n1CC2`, the IC50 in [3] turned out to be 37.6 nM.
As for `COc1cc2c(cc1OC)CN1CCc3cc(NC(=O)NCc4ccc(OC(F)(F)F)cc4)ccc3C1C2` (stereo unspecified), the inhibition in vivo at 0.5 mg/kg in the data set with Mus musculus [5] came out at 35%. Also, the Activity entry in the data set on HepG2 and with HEK-293T was “Non-toxic” each time. Moreover, the IC50 in [3] came out at 2.83 nM.
`COc1cc2c(cc1OC)C1Cc3ccc(NC(=O)NCC4CCOCC4)cc3CN1CC2` (stereo unspecified): in data set [3], the IC50 was 19.4 nM.
On the same count and under the same terms, with `CCC(=O)N1CCC(CNC(=O)Nc2ccc3c(c2)CCN2Cc4cc(OC)c(OC)cc4CC32)CC1` (stereo unspecified) the figure was 42.7 nM.
With `CCC(=O)N1CCC(CNC(=O)Nc2ccc3c(c2)CN(C)c2c-3ccc3ccccc23)CC1`, the Activity entry in the data set with HepG2 and in the data set with HEK-293T was “Non-toxic” in each case. For the same compound, the IC50 in [3] worked out at 6.94 nM.
Regarding `COc1cc2c(cc1OC)CN1CCc3cc(NC(=O)NCc4ccc(OC(F)(F)F)cc4)ccc3[C@@H]1C2`, in the data set on Mus musculus [4], the inhibition in vivo at 20 mg/kg was 27%.
In the case of `O=C(NCc1ccc(OC(F)(F)F)cc1)Nc1ccc2c(c1)CN1CCc3cc4c(cc3C1C2)OCO4` (stereo unspecified), the IC50 in [3] worked out at 1.49 nM.
On the same count and under the same terms, with `O=C(NCC1CCOCC1)Nc1ccc2c(c1)CN1CCc3cc4c(cc3C1C2)OCO4` (stereo unspecified) the figure was 15.9 nM.
Still for that read-out and setting: with `COc1cc2c(cc1OC)C1Cc3ccc(NC(=O)Nc4ccc(OC(F)(F)F)cc4)cc3CN1CC2` (stereo unspecified) the figure was 40.7 nM.
For the compound `COc1cc2c(cc1OC)-c1cc3ccc(NC(=O)NCc4ccc(OC(F)(F)F)cc4)cc3c[n+]1CC2`, the MIC against Staphylococcus aureus [1] and in the data set on Staphylococcus aureus [2] was 8 µg/mL in each case. Moreover, in data set [3], the IC50 was found to be 210 nM.
Regarding `COc1cc2c(cc1OC)C1Cc3ccc(NC(=O)NC[C@@H]4CCCO4)cc3CN1CC2` (stereo partly specified), in data set [3], the IC50 is 54.3 nM.
`COc1cc2c(cc1OC)C1Cc3ccc(NC(=O)NCc4ccc(OC(F)F)cc4)cc3CN1CC2` (stereo unspecified): the Activity entry in the data set on HepG2 and in the data set on HEK-293T was “Non-toxic” in each case. Further, in data set [3], the IC50 was 1.33 nM.
Take `CCC(=O)N1CCC(NC(=O)Nc2ccc3c(c2)CN2CCc4cc5c(cc4C2C3)OCO5)CC1` (stereo unspecified): the IC50 in [3] was determined as 97.1 nM.
